Test results reported in paper PMC4053473 (Molecular cancer therapeutics, 2009).
Where no end group is shown, it is not given here.

Key:
in vivo = conditions: SCID, mouse, iv, 5 uCi, total radioactivity
H2009 cells [1] = target: T1, H2009 cells (Homo sapiens, UniProt P06756+P18564); test: Cellular uptake of labeled peptide by confocal/fluorescence microscopy; assay type: cell-based; conditions: for cellular uptake of peptide-Qdot conjugate (fluorescent/confocal microscopy): 20 nmol/L SAQdot605 conjugate, 10 min incubation
T1 sequence (P06756 31-1048): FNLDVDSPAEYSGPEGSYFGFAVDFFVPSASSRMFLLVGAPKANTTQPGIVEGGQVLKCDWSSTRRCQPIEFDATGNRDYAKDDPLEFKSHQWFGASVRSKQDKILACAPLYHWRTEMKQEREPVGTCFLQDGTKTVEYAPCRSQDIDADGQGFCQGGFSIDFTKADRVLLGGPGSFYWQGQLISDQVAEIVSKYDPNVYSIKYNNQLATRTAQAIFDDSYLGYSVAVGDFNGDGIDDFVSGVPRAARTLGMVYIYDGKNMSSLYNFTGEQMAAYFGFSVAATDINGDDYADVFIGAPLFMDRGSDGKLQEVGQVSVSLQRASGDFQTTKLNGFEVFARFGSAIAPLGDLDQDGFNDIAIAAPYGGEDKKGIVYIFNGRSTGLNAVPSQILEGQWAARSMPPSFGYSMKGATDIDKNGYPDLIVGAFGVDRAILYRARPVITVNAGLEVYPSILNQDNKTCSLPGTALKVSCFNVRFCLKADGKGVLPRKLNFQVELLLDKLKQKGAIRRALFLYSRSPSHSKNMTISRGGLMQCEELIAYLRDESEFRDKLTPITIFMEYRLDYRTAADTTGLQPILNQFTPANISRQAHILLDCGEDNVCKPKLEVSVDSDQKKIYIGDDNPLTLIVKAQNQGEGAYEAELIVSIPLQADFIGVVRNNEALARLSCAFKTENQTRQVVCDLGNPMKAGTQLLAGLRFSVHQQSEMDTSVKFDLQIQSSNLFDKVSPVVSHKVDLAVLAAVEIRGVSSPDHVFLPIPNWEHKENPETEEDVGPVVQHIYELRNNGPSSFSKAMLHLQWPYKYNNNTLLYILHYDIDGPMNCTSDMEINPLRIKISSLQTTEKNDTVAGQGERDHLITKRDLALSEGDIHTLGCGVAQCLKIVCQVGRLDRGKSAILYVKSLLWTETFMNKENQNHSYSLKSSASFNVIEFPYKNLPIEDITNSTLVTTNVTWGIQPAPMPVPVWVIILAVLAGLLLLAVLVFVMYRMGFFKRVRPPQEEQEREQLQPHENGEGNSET
T1 sequence (P18564 22-788): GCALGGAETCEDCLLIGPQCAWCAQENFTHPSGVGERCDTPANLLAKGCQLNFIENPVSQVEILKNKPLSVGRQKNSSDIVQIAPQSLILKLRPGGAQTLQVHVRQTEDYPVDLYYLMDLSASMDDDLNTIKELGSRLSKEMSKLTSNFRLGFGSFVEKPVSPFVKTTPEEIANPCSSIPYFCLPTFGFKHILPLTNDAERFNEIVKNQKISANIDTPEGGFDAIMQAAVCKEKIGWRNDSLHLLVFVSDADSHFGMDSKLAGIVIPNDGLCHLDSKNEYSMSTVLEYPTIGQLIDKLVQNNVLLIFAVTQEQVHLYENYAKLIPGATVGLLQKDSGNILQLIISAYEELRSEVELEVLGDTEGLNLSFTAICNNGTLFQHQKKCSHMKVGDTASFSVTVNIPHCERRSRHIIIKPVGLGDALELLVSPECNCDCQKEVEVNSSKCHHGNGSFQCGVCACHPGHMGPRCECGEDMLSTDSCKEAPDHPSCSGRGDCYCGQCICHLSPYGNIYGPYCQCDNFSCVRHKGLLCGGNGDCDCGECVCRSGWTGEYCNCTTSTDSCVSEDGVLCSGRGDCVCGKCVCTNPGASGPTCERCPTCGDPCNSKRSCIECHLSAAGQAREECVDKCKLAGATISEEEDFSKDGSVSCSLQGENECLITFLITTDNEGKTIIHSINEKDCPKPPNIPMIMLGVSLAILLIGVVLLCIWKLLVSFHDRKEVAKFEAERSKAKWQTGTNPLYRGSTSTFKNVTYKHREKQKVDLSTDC

αvβ6 = conditions: cited from earlier work
H2009 cells [2] = target: T1, H2009 cells; test: Peptide blocking of cognate H2009.1 phage uptake on H2009 cells; assay type: cell-based; conditions: Fig. 2B, 2D, Supplementary Data

CC(C)C[C@H](NC(=O)[C@H](CCC(N)=O)NC(=O)[C@H](CCCNC(=N)N)NC(=O)[C@H](CC(C)C)NC(=O)[C@@H](NC(=O)[C@H](C)NC(=O)[C@H](CC(C)C)NC(=O)[C@H](CC(=O)O)NC(=O)CNC(=O)[C@@H](N)CCCNC(=N)N)[C@@H](C)O)C(=O)NCCOCCOCCOCCOCCOCCOCCOCCOCCOCCOCCOCCOCCC(=O)N[C@@H](CSC1CC(=O)N(CCC(=O)NCCCC[C@H](NC(=O)CCN2C(=O)CC(SC[C@H](NC(=O)CCOCCOCCOCCOCCOCCOCCOCCOCCOCCOCCOCCOCCNC(=O)[C@H](CC(C)C)NC(=O)[C@H](CCC(N)=O)NC(=O)[C@H](CCCNC(=N)N)NC(=O)[C@H](CC(C)C)NC(=O)[C@@H](NC(=O)[C@H](C)NC(=O)[C@H](CC(C)C)NC(=O)[C@H](CC(=O)O)NC(=O)CNC(=O)[C@@H](N)CCCNC(=N)N)[C@@H](C)O)C(N)=O)C2=O)C(=O)NCCCC[C@H](NC(=O)[C@H](CCCCNC(=O)CCN2C(=O)CC(SC[C@H](NC(=O)CCOCCOCCOCCOCCOCCOCCOCCOCCOCCOCCOCCOCCNC(=O)[C@H](CC(C)C)NC(=O)[C@H](CCC(N)=O)NC(=O)[C@H](CCCNC(=N)N)NC(=O)[C@H](CC(C)C)NC(=O)[C@@H](NC(=O)[C@H](C)NC(=O)[C@H](CC(C)C)NC(=O)[C@H](CC(=O)O)NC(=O)CNC(=O)[C@@H](N)CCCNC(=N)N)[C@@H](C)O)C(N)=O)C2=O)NC(=O)CCN2C(=O)CC(SC[C@H](NC(=O)CCOCCOCCOCCOCCOCCOCCOCCOCCOCCOCCOCCOCCNC(=O)[C@H](CC(C)C)NC(=O)[C@H](CCC(N)=O)NC(=O)[C@H](CCCNC(=N)N)NC(=O)[C@H](CC(C)C)NC(=O)[C@@H](NC(=O)[C@H](C)NC(=O)[C@H](CC(C)C)NC(=O)[C@H](CC(=O)O)NC(=O)CNC(=O)[C@@H](N)CCCNC(=N)N)[C@@H](C)O)C(N)=O)C2=O)C(=O)N[C@@H](CSC2CC(=O)N(CCNC(=O)CN3CCN(CC(=O)O)CCN(CC(=O)O)CCN(CC(=O)O)CC3)C2=O)C(=O)NCCC(=O)O)C1=O)C(N)=O (stereo partly shown) [111In-labeled H2009.1 peptide, metal not drawn]
tissue uptake at 4 h (in vivo): 0.84 ± 0.11 %ID/g

DALRLQGTLR [scrambled H2009.1 peptide]
cellular uptake of peptide-Qdot conjugate (fluorescent/confocal microscopy) (H2009 cells [1]): No uptake

GFTTGRRGDLATIHGMNPF [A20LAP]
affinity for αvβ6 (αvβ6): low nanomolar range

RGDLATL [H2009.1 7-mer peptide]
ability to block phage uptake / binding affinity for H2009 cells (in words) (H2009 cells [2]): retains full activity

RGDLATLRQL-OH
ability to block phage uptake / binding affinity for H2009 cells (in words) (H2009 cells [2]): significantly reduced affinity

YAAWPASGAWTGTAPC-SAGT [H1299.2-Qdot conjugate]
cellular uptake of peptide-Qdot conjugate (fluorescent/confocal microscopy) (H2009 cells [1]): no uptake | localization of β6 integrin after treatment with peptide-Qdot conjugate (H2009 cells [1]; 10-min incubation, fixed, permeabilized, stained for β6): β6 remains localized on the cell surface
